The target in the experiment is T1, human mGlu2 receptor (Homo sapiens, UniProt Q14416).
T1 construct: expressed in transfected cells; host or cells: CHO cells
The experiment can be described thus: [35S]GTPγS binding assay, mGluR2 PAM. The experiment is classed as biochemical. Conditions: for GTPγS-hmGluR2 PAM Emax / Emax: EC20 glutamate; for EC50 / GTPγS-hmGluR2 PAM pEC50: in presence of EC20 glutamate; for EC50: read-out: GTPγS-hmGluR2 PAM pEC50 (converted). On the procedure: The [^35S]GTPγS binding assay is a functional membrane-based assay used to study G-protein coupled receptor (GPCR) function whereby incorporation of a non-hydrolysable form of GTP, [^35S]GTPγS (guanosine 5′-triphosphate, labelled with […] ^35S), is measured.
Cells were then collected by scraping in PBS and cell suspension was centrifuged (10 min at 4000 RPM in benchtop centrifuge). Supernatant was discarded and pellet gently resuspended in 50 mM Tris-HCl, pH 7.4 by mixing with a vortex and pipetting up and down. The suspension was centrifuged at 16,000 RPM (Sorvall RC-5C plus rotor SS-34) for 10 minutes and the supernatant discarded. The pellet was homogenized in 5 mM Tris-HCl, pH 7.4 using an ultra-turrax homogenizer and centrifuged again (18,000 RPM, 20 min, 4° C.). The final pellet was resuspended in 50 mM Tris-HCl, pH 7.4 and stored at-80° C. in appropriate aliquots before use. Protein concentration was determined by the Bradford method (Bio-Rad, USA) with bovine serum albumin as standard.
Measurement of mGluR2 positive allosteric modulatory activity of test compounds was performed as follows. Test compounds and glutamate were diluted in assay buffer containing 10 mM HEPES acid, 10 mM HEPES salt, pH 7.4, 100 mM NaCl, 3 mM MgCl2 and 10 μM GDP. Human mGlu2 receptor-containing membranes were thawed on ice and diluted in assay buffer supplemented with 14 μg/ml saponin. Membranes were pre-incubated with compound alone or together with a predefined (˜EC20) concentration of glutamate (PAM assay) for 30 min at 30° C. After addition of [^35S] GTPγS (f.c. 0.1 nM), assay mixtures were shaken briefly and further incubated to allow [^35S] GTPγS incorporation on activation (30 minutes, 30° C.). Final assay mixtures contained 7 μg of membrane protein in 10 mM HEPES acid, 10 mM HEPES salt, pH 7.4, 100 mM NaCl, 3 mM MgCl2, 10 µM GDP and 2 μg/ml saponin. Total reaction volume was 200 μl. Reactions were terminated by rapid filtration through Unifilter-96 GF/B plates (Perkin Elmer, Massachusetts, USA) using a 96-well filtermate universal harvester. Filters were washed 6 times with ice-cold 10 mM NaH2PO4/10 mM Na2HPO4, pH 7.4. Filters were then air-dried, and 40 μl of liquid scintillation cocktail (Microscint-O) was added to each well. Membrane-bound radioactivity was counted in a Microplate Scintillation and Luminescence Counter from Perkin Elmer.
The concentration-response curves of representative compounds of the present invention-obtained in the presence of EC20 of mGluR2 agonist glutamate to determine positive allosteric modulation (PAM)—were generated using the Lexis software interface (developed at J&J). Data were calculated as % of the control glutamate response, defined as the maximal response that is generated upon addition of glutamate alone. Sigmoid concentration-response curves plotting these percentages versus the log concentration of the test compound were analyzed using non-linear regression analysis. The concentration producing half-maximal effect is then calculated as EC50. The pEC50 values below were calculated as the −log EC50, when the EC50 is expressed in M. Emax is defined as relative maximal effect (i.e. maximal % effect relative to the control glutamate response).
A general note: Binding of GTPγS marks nucleotide exchange on a G protein.

Setting [1] is: maximal % effect relative to control glutamate response, read-out: GTPγS-hmGluR2 PAM Emax.

Where two headings read alike, the source gives them in different places.

T1 sequence (Q14416 19-872): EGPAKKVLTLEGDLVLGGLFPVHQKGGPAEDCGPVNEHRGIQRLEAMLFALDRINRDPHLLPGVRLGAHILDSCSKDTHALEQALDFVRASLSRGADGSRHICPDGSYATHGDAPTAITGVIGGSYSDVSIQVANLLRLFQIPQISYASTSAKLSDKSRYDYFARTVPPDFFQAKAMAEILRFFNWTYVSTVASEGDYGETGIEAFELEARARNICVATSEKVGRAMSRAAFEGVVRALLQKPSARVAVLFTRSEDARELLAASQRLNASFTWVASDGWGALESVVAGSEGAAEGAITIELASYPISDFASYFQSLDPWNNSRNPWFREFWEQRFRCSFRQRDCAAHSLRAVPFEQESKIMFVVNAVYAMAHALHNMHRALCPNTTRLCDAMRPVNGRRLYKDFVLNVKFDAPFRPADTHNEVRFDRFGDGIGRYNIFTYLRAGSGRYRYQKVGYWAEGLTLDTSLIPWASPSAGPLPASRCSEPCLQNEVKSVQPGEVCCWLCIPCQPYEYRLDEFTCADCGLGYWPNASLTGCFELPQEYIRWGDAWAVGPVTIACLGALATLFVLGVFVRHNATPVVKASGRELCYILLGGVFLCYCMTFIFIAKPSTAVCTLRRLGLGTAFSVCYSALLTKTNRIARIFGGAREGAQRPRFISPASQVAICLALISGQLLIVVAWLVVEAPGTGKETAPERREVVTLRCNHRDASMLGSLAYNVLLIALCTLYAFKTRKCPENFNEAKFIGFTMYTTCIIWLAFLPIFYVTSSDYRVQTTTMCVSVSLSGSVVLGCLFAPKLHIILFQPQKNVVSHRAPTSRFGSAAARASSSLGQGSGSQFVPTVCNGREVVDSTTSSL

As for `CC(Oc1ccc(F)cc1)c1ccn2c(CC3CC3)nnc2c1C(F)(F)F` (single isomer, unassigned) [Co. No. 2-b, 3-(Cyclopropylmethyl)-7-[(1*R)-1-(4-fluorophenoxy)ethyl]-8-(trifluoromethyl)[1,2,4]triazolo[4,3-a]pyridine], for the setting “maximal % effect relative to control glutamate response, listed as 2-b”, the “GTPγS-hmGluR2 PAM Emax” value is reported as 228%.

In the case of `CC(Oc1ccc(F)cc1)c1ccn2c(CC3CC3)nnc2c1C(F)(F)F` (single isomer, unassigned) [Co. No. 3-b, 3-(Cyclopropylmethyl)-7-[(1*S)-1-(4-fluorophenoxy)ethyl]-8-(trifluoromethyl)[1,2,4]triazolo[4,3-a]pyridine], the “GTPγS-hmGluR2 PAM Emax” value (maximal % effect relative to control glutamate response, listed as 3-b) was determined as 187%.

What is called Emax is the size of the effect at its maximum, as opposed to the concentration needed. Turning to `CC(Oc1ccc(F)cc1F)c1ccn2c(CC3CCC3)nnc2c1C(F)(F)F` (single isomer, unassigned) [Co. No. 18-b, 3-(Cyclobutylmethyl)-7-[(1*S)-1-(2,4-difluorophenoxy)ethyl]-8-(trifluoromethyl)[1,2,4]triazolo[4,3-a]pyridine], the EC50 is 575 nM. For the same compound, under setting [1], the Emax turned out to be 213%.

On to `CCOCc1nnc2c(C(F)(F)F)c(C(C)Oc3ccc(F)cc3F)ccn12` (single isomer, unassigned) [Co. No. 20-b, 7-[(1*R)-1-(2,4-Difluorophenoxy)ethyl]-3-(ethoxymethyl)-8-(trifluoromethyl)[1,2,4]triazolo[4,3-a]pyridine], for which the “GTPγS-hmGluR2 PAM Emax” value (maximal % effect relative to control glutamate response, listed as 20-b) came to 332%.

Take `CCOCc1nnc2c(C(F)(F)F)c(C(C)Oc3ccc(F)cc3F)ccn12` (single isomer, unassigned) [Co. No. 21-b, 7-[(1*S)-1-(2,4-Difluorophenoxy)ethyl]-3-(ethoxymethyl)-8-(trifluoromethyl)[1,2,4]triazolo[4,3-a]pyridine]: the “GTPγS-hmGluR2 PAM Emax” value (maximal % effect relative to control glutamate response, listed as 21-b) was 102%.

On to `CCOCc1nnc2c(C(F)(F)F)c(C(C)Oc3c(F)cc(F)cc3F)ccn12` (single isomer, unassigned) [Co. No. 22-b, 3-(Ethoxymethyl)-8-(trifluoromethyl)-7-[(1*R)-1-(2,4,6-trifluorophenoxy)ethyl][1,2,4]triazolo[4,3-a]pyridine], for which the “GTPγS-hmGluR2 PAM Emax” value (maximal % effect relative to control glutamate response, listed as 22-b) came to 325%.

`CCOCc1nnc2c(C(F)(F)F)c(C(C)Oc3c(F)cc(F)cc3F)ccn12` (single isomer, unassigned) [Co. No. 23-b, 3-(Ethoxymethyl)-8-(trifluoromethyl)-7-[(1*S)-1-(2,4,6-trifluorophenoxy)ethyl][1,2,4]triazolo[4,3-a]pyridine]: under “maximal % effect relative to control glutamate response, listed as 23-b”, the “GTPγS-hmGluR2 PAM Emax” value was found to be 167%.

Turning to `CCCc1nnc2c(C(F)(F)F)c(C(C)Oc3ccc(F)cc3F)ccn12` (single isomer, unassigned) [Co. No. 31-b], the EC50 was 89.1 nM. Further, the “GTPγS-hmGluR2 PAM Emax” value (maximal % effect relative to control glutamate response, listed as 31-b) came to 251%.

With `CCCc1nnc2c(C(F)(F)F)c(C(C)Oc3ccc(F)cc3F)ccn12` (single isomer, unassigned) [Co. No. 32-b], the EC50 is 1950 nM. Further, the “GTPγS-hmGluR2 PAM Emax” value (maximal % effect relative to control glutamate response, listed as 32-b) was found to be 116%.

Take `O=c1c(Cl)c(N2CCC(c3ccccc3)CC2)ccn1CC1CC1` [Co. No. 1-a]: the EC50 is 166 nM. Moreover, the Emax under setting [1] came out at 314%.

Regarding `CC(Oc1ccc(F)cc1)c1ccn2c(CC3CC3)nnc2c1C(F)(F)F` (stereo not shown) [Co. No. 1-b, 3-(Cyclopropylmethyl)-7-[1-(4-fluorophenoxy)ethyl]-8-(trifluoromethyl)[1,2,4]triazolo-[4,3-a]pyridine], the Emax under setting [1] was 296%.

Regarding `O=c1c(Br)c(N2CCC(c3ccccc3)CC2)ccn1CC1CC1` [Co. No. 3-a], the Emax under setting [1] was determined as 231%.

Take `CC1(c2ccc(F)cc2)CCN(Cc2ccn3c(CC4CC4)nnc3c2C(F)(F)F)CC1` [Co. No. 3]: under “read-out: GTPγS-hmGluR2 PAM Emax, maximal % effect relative to control glutamate response”, the Emax was found to be 212%.

With `O=c1c(C(F)(F)F)c(N2CCC(c3ccccc3)CC2)ccn1CC1CC1` [Co. No. 4-a], the “GTPγS-hmGluR2 PAM pEC50” value was 6.6. Further, under setting [1], the Emax stood at 269%.

Turning to `CC(Oc1ccc(F)cc1F)c1ccn2c(CC3CC3)nnc2c1C(F)(F)F` (stereo not shown) [Co. No. 4-b, 3-(Cyclopropylmethyl)-7-[1-(2,4-difluorophenoxy)ethyl]-8-(trifluoromethyl)[1,2,4]triazolo-[4,3-a]pyridine], the Emax under setting [1] came to 329%.

On to `C[C@@H](Oc1ccc(F)cc1F)c1ccn2c(CC3CC3)nnc2c1C(F)(F)F` [Co. No. 5-b, 3-(Cyclopropylmethyl)-7-[(1R)-1-(2,4-difluorophenoxy)ethyl]-8-(trifluoromethyl)[1,2,4]triazolo[4,3-a]pyridine], for which the Emax under setting [1] turned out to be 141%.

Regarding `Fc1ccc(N2CCN(Cc3ccn4c(CC5CC5)nnc4c3Cl)CC2)c(F)c1` [Co. No. 5], the EC50 is 550 nM. Further, under setting [1], the Emax came to 231%.

Regarding `N#CC1(c2ccccc2)CCN(c2ccn(CC3CC3)c(=O)c2Cl)CC1` [Co. No. 6-a], under setting [1], the Emax was determined as 255%.

With `CCCCn1ccc(N2CCC(F)(c3ccccc3)CC2)c(Cl)c1=O` [Co. No. 7-a], the EC50 is 229 nM. The Emax under setting [1] came out at 291%.

In the case of `C[C@H](Oc1cc(F)cc(F)c1)c1ccn2c(CC3CC3)nnc2c1C(F)(F)F` [Co. No. 7-b, 3-(Cyclopropylmethyl)-7-[(1S)-1-(3,5-difluorophenoxy)ethyl]-8-(trifluoromethyl)[1,2,4]triazolo[4,3-a]pyridine], under setting [1], the Emax is 292%.

As to `CC1(C)OC2(CCN(c3ccn4c(CC5CC5)nnc4c3C(F)(F)F)CC2)c2ccc(F)cc21` [Co. No. 7], the Emax under setting [1] was 263%.

For `O=c1c(C2CC2)c(N2CCC(c3ccccc3)CC2)ccn1CC1CC1` [Co. No. 8-a], the Emax under setting [1] was 157%.

Turning to `C[C@H](Oc1ccc(F)c(F)c1)c1ccn2c(CC3CC3)nnc2c1C(F)(F)F` [Co. No. 8-b, 3-(Cyclopropylmethyl)-7-[(1S)-1-(3,4-difluorophenoxy)ethyl]-8-(trifluoromethyl)[1,2,4]triazolo[4,3-a]pyridine], the Emax under setting [1] turned out to be 244%.

For the compound `FC(F)(F)c1c(N2CCN(c3ncccn3)CC2)ccn2c(CC3CC3)nnc12` [Co. No. 8], the EC50 is 186 nM. The Emax under setting [1] is 360%.

Take `CC(C)(O)c1ccc(C2CCN(c3ccn(CC4CC4)c(=O)c3C3CC3)CC2)cc1` [Co. No. 9-a]: the EC50 is 257 nM. Under setting [1], the maximal response (Emax) came out at 222%.

Take `C[C@H](Oc1cccc(F)c1F)c1ccn2c(CC3CC3)nnc2c1C(F)(F)F` [Co. No. 9-b, 3-(Cyclopropylmethyl)-7-[(1S)-1-(2,3-difluorophenoxy)ethyl]-8-(trifluoromethyl)[1,2,4]triazolo[4,3-a]pyridine]: under setting [1], the Emax came to 260%.

With `COc1cnc(N2CCN(c3ccn4c(CC5CC5)nnc4c3C(F)(F)F)CC2)nc1` [Co. No. 9], the EC50 was 126 nM. The Emax under setting [1] is 462%.

`O=c1c(Cl)c(N2CCC(c3ccccc3)CC2)ccn1CCC1CC1` [Co. No. 10-a]: the “GTPγS-hmGluR2 PAM pEC50” value is 6.88. Further, the Emax under setting [1] is 290%.

Regarding `C[C@H](Oc1cc(F)ccc1F)c1ccn2c(CC3CC3)nnc2c1C(F)(F)F` [Co. No. 10-b, 3-(Cyclopropylmethyl)-7-[(1S)-1-(2,5-difluorophenoxy)ethyl]-8-(trifluoromethyl)[1,2,4]triazolo[4,3-a]pyridine], the Emax under setting [1] amounted to 218%.

As to `Fc1ccc(C2CCN(c3ccn4c(CC5CC5)nnc4c3Cl)CC2)c(F)c1` [Co. No. 10], under setting [1], the Emax worked out at 357%.

As to `CCCCCn1ccc(N2CCC(c3ccccc3)CC2)c(Cl)c1=O` [Co. No. 11-a], the “GTPγS-hmGluR2 PAM pEC50” value is on record as 7.11. For the same compound, the Emax under setting [1] amounted to 249%.

The record behind these values is patent publication US20250288584A1, “COMBINATIONS COMPRISING POSITIVE ALLOSTERIC MODULATORS OR ORTHOSTERIC AGONISTS OF METABOTROPIC GLUTAMATERGIC RECEPTOR SUBTYPE 2 AND THEIR USE” (JANSSEN PHARMACEUTICA NV, priority 2014, published 2025).
